Test systems include 786-0 renal; ACHN renal; CAKI-1 renal; CCRF-CEM leukemia; HCT-116 colon; NCI-H522 lung; RPMI-8226 leukemia; RXF 393 renal; SW-620 colon; U251 CNS.
Holding throughout (test): inhibition of tumour cell growth, NCI panel, 48 h

SMILES strings stand for the structures.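 Cells were grown in 96-well plates and exposed to each compound for 48 hours at five concentrations; endpoints were interpolated linearly between bracketing concentrations, or set to the highest concentration if not reached. GI50 = concentration required for 50% inhibition of growth. TGI is the concentration that stops growth completely.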

`CN(C)C(=S)N=Nc1c(O)[nH]c2ccccc12`: the GI50 in the assay with 786-0 renal was 0.891 µM; in the assay on ACHN renal, 0.526 µM; in the assay with CAKI-1 renal, 0.257 µM; with CCRF-CEM leukemia, 0.298 µM; with HCT-116 colon it was 0.303 µM; in the assay on NCI-H522 lung it was 0.355 µM. The GI50 in the assay with RPMI-8226 leukemia was 0.418 µM; in the assay with RXF 393 renal, 1.05 µM; with SW-620 colon, 0.576 µM; in the assay on U251 CNS, 0.392 µM. The TGI was 12.2 µM in the assay with 786-0 renal; 11.4 µM in the assay with ACHN renal; 1.26 µM with CAKI-1 renal; 3 µM in the assay on HCT-116 colon; 11 µM with NCI-H522 lung; 33.5 µM with RPMI-8226 leukemia. In addition, the TGI in the assay with RXF 393 renal was determined as 14.5 µM; in the assay on SW-620 colon, 21.6 µM; in the assay on U251 CNS, 27.6 µM.
As to `COc1c(N2CCN(CN3C(=O)C(=Nc4ccc(S(=O)(=O)Nc5ncccn5)cc4)c4ccccc43)C(C)C2)c(F)cc2c(=O)c(C(=O)O)cn(C3CC3)c12` (centres undefined), the GI50 in the assay on 786-0 renal is over 50 µM; with ACHN renal it was over 50 µM; with CAKI-1 renal, 48 µM; in the assay with CCRF-CEM leukemia, 44.4 µM; in the assay on HCT-116 colon, 18.2 µM; in the assay on NCI-H522 lung, over 50 µM. Besides, the GI50 was 28.7 µM in the assay with RPMI-8226 leukemia, 42.4 µM in the assay with RXF 393 renal, 10.8 µM in the assay with SW-620 colon and over 50 µM in the assay with U251 CNS. Also, the TGI with 786-0 renal, in the assay with ACHN renal, in the assay with CAKI-1 renal, in the assay with CCRF-CEM leukemia, in the assay on HCT-116 colon and in the assay with NCI-H522 lung was over 50 µM throughout. In addition, the TGI in the assay on RPMI-8226 leukemia is over 50 µM; with RXF 393 renal, over 50 µM; in the assay on SW-620 colon, 39.4 µM; in the assay with U251 CNS it was over 50 µM.
Consider `CCCCCCCCCCCCCCCC(=O)OCC1OC(n2c(O)c(N=NC(N)=S)c3ccc([N+](=O)[O-])cc32)C(OC(C)=O)C1OC(C)=O` (centres undefined), for which the TGI in the assay with 786-0 renal, in the assay on ACHN renal, with CAKI-1 renal, with CCRF-CEM leukemia, in the assay with HCT-116 colon and with NCI-H522 lung was over 100 µM each time. In addition, the TGI in the assay on RPMI-8226 leukemia, with RXF 393 renal, in the assay with SW-620 colon and in the assay with U251 CNS was over 100 µM in each case.
Regarding `Cc1nc2sc(C(=O)Nc3ccccc3)c(N)c2cc1C(=O)/C=C/c1ccccc1`, the GI50 was 1.51 µM in the assay on 786-0 renal; 1.81 µM in the assay on ACHN renal; 1.87 µM in the assay with CAKI-1 renal; 2.22 µM in the assay with CCRF-CEM leukemia; 1.46 µM in the assay on HCT-116 colon; 1.77 µM with NCI-H522 lung. The GI50 in the assay on RPMI-8226 leukemia was 1.67 µM; with RXF 393 renal, 1.67 µM; in the assay on SW-620 colon, 1.74 µM; in the assay on U251 CNS, 1.71 µM. The TGI with 786-0 renal is 3.01 µM; with ACHN renal it was 3.45 µM; in the assay with CAKI-1 renal it was 3.74 µM; in the assay with CCRF-CEM leukemia, over 100 µM; with HCT-116 colon, 2.97 µM; in the assay with NCI-H522 lung, 4.24 µM. Moreover, the TGI is 5.2 µM in the assay with RPMI-8226 leukemia, 3.25 µM in the assay with RXF 393 renal, 4.49 µM in the assay on SW-620 colon and 3.16 µM with U251 CNS.
With `CC(C)CC1=[N+]=C(NC#N)N=C(CCC(=O)Nc2ccccc2[N+](=O)[O-])C1`, the TGI in the assay with 786-0 renal, in the assay with ACHN renal, in the assay on CAKI-1 renal, in the assay with CCRF-CEM leukemia, in the assay with HCT-116 colon and in the assay on NCI-H522 lung was over 100 µM in each case. Also, the TGI in the assay on RPMI-8226 leukemia, with RXF 393 renal, with SW-620 colon and with U251 CNS was over 100 µM throughout.
Take `COc1ccc(C2S/C(=C\c3ccc(O)cc3)C(=O)N2NC(=O)Cc2ccccc2)cc1` (centres undefined): the TGI in the assay on 786-0 renal, in the assay with ACHN renal, with CAKI-1 renal, in the assay with CCRF-CEM leukemia, in the assay on HCT-116 colon and with NCI-H522 lung was over 100 µM each time. Moreover, the TGI in the assay on RPMI-8226 leukemia, with RXF 393 renal, in the assay on SW-620 colon and with U251 CNS was over 100 µM each time.
On to `CC(=O)OC1c2ccccc2CCCCCCC12OCCO2` (centres undefined), for which the TGI in the assay on 786-0 renal, in the assay with ACHN renal, with CAKI-1 renal, with CCRF-CEM leukemia, in the assay on HCT-116 colon and with NCI-H522 lung was over 100 µM throughout. Further, the TGI in the assay with RPMI-8226 leukemia, with RXF 393 renal, in the assay with SW-620 colon and in the assay on U251 CNS was over 100 µM throughout.
As to `Cc1cccc(C(C)C)c1NC(=O)C(=O)CC(=O)c1c(C)n([O-])c2ccccc2[n+]1=O`, the TGI in the assay on 786-0 renal was over 100 µM; in the assay with ACHN renal, over 100 µM; in the assay on CAKI-1 renal, over 100 µM; in the assay with CCRF-CEM leukemia it was 99.7 µM; in the assay with HCT-116 colon, over 100 µM; with NCI-H522 lung it was 53.9 µM. The TGI in the assay with RPMI-8226 leukemia is 72.1 µM; in the assay with RXF 393 renal, over 100 µM; in the assay with SW-620 colon, over 100 µM; in the assay with U251 CNS, 95.9 µM.
In the case of `Fc1cccc(COc2ccc(Nc3ncnc4cc(-c5ccc[nH]5)sc34)cc2Cl)c1`, the GI50 in the assay on 786-0 renal was 1.22 µM; in the assay on ACHN renal, 2.68 µM; in the assay with CAKI-1 renal, 0.681 µM; in the assay with CCRF-CEM leukemia, 0.44 µM; in the assay on HCT-116 colon, 7.46 µM; in the assay on NCI-H522 lung it was 1.48 µM. Besides, the GI50 in the assay with RPMI-8226 leukemia is 0.133 µM; in the assay with RXF 393 renal, 2.17 µM; in the assay on SW-620 colon, 8.56 µM; in the assay with U251 CNS, 3.51 µM. Moreover, the TGI in the assay with 786-0 renal is 5.32 µM; in the assay with ACHN renal, over 16.8 µM; in the assay with CAKI-1 renal, 6.89 µM; with CCRF-CEM leukemia it was over 25 µM; with HCT-116 colon, over 25 µM; with NCI-H522 lung, over 7.14 µM. For the same compound, the TGI in the assay with RPMI-8226 leukemia is over 15.9 µM; in the assay on RXF 393 renal, 6.62 µM; in the assay with SW-620 colon, over 25 µM; in the assay on U251 CNS, 17.5 µM.
For `COc1ccc(O)c(C#N)c1C#N`, the TGI in the assay on 786-0 renal, in the assay on ACHN renal, in the assay with CAKI-1 renal, in the assay with CCRF-CEM leukemia, in the assay on HCT-116 colon and in the assay with NCI-H522 lung was over 100 µM throughout. Moreover, the TGI in the assay with RPMI-8226 leukemia, with RXF 393 renal, with SW-620 colon and in the assay on U251 CNS was over 100 µM in each case.

The values are drawn from PubChem BioAssay (NCI).
